The record followed here is patent US8901126B2, “Substituted imidazo[1,5-A]quinoxalin-4-ones are useful for preventing or treating storage dysfunction, voiding dysfunction and bladder/urethral diseases” (priority 2010, dated 2014).

For series [1], the system named is urethra relaxation response. Briefly: Simultaneous measurement model for rat bladder contraction/urethra relaxation responses. Format: in vivo. Particulars: female SD rat, urethane anesthesia, 1 mg/kg, intravenously or intraduodenally. The source says:
That is, a female Sprague-Dawley (SD) rat (Charles River Laboratories Japan, Inc.) was anesthetized with urethane, and the bladder was exposed by a midline incision in the lower abdomen. A double lumen cannula (a cannula having a dual structure by PE190 and PE50) from the bladder apex was inserted into the bladder, and the bladder apex and the cannula were fixed by sutures at a point where the tip reached the proximal urethra. While infusing physiological saline into the urethra through the outer cannula, the urethral inner pressure was measured by a pressure transducer through the inner cannula with a saline solution infused into the urethra through the outer cannula. On the other hand, a single cannula (PE50) was inserted into the bladder from the bladder apex and placed therein. The inner pressure of the bladder was measured through this cannula. After a postoperative stabilization period had passed, physiological saline was infused into the bladder through the cannula of the bladder apex to cause a bladder contraction reaction, and thus cause a urethra relaxation response accompanying the bladder contraction reflex. The test substance was administered intravenously or intraduodenally.

The target in a further series is T1, PDE9 (Homo sapiens, UniProt O76083).
T1 construct: made in house
Description: PDE9-inhibiting activity (SPA, 3H-cGMP degradation). Format: biochemical. Particulars: PDE9-inhibiting activity (IC50 values), cGMP 1 μM, 30° C. The method, then:
The PDE9 used in the present experiment was expressed/purified by the method as in, for example, Guipponi et al., and Fisher et., al. (Fisher, D. A., et al., J. Biol. Chem., 273: pp. 15559-15564 (1998), Guipponi, M., et al., Hum. Genet., 103: pp. 386-392 (1998)).
(2) Evaluation of PDE9-Inhibiting Activity
The PDE9-inhibiting activity was measured by the following method. That is, to a buffer solution containing tris(hydroxymethyl)aminomethane-hydrochloric acid (40 mM, pH 8.0), magnesium chloride (5 mM), and 2-mercaptoethanol (4 mM) were added cGMP (1 μM) and ^3H-cGMP (0.33 μCi/ml) to give a substrate buffer solution. A test substance solution and an enzyme solution which had been adjusted to an optimal concentration were added thereto to perform a reaction at 30° C. The enzyme reaction was stopped by the addition of Scintillation Proximity Assay (SPA) Beads (Perkin Elmer, USA) containing 5 mM 3-isobutyl-1-methylxanthine (IBMX). For the enzyme activity, the amount of 5′-GMP, which is a reaction degradation product bound to SPA beads, was measured with a TopCount microplate reader (Hewlett Packard, USA).
The inhibitory rate was calculated by taking the radioactivity of the control containing no test substance as (A), taking the radioactivity of the blank containing no enzyme as (B), and taking the radioactivity of the test substance as (C), and using the following equation. Inhibitory rate=100−{(C)−(B)/(A)−(B)}×100(%)

Counter-ions that a name gives are not always drawn.

T1 sequence (O76083 whole entry): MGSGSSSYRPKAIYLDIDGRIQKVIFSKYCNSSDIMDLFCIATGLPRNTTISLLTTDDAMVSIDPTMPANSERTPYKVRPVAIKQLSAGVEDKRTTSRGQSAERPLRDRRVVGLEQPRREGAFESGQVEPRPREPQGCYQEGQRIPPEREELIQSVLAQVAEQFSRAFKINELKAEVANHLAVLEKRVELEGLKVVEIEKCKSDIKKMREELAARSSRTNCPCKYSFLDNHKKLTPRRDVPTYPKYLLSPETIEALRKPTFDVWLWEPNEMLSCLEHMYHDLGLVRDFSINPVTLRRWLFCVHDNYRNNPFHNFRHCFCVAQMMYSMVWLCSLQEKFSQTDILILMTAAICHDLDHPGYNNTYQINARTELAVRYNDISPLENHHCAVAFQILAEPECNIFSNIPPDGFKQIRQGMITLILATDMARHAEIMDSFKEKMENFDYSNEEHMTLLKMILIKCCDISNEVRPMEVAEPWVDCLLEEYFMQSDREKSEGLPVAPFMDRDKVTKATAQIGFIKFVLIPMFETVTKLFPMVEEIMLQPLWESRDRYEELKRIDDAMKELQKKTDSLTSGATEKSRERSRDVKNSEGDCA

A word on the IC50: it is the midpoint of a concentration-inhibition curve. As for `COCc1cc2c(cc1C(=O)N1CCc3cc(C)cnc31)[nH]c(=O)c1cnc(C3CCOC3)n12` (single isomer, unassigned) [Example 25(b)], in series [1], the “ratio with increased urethra relaxation time during voiding (increase relative to the solvent administration group (vs vehicle))” value stood at 131%. At PDE9, 14 nM corresponded to half-maximal inhibition (IC50).
As for `COc1cc2c(cn1)N(C(=O)c1cc3[nH]c(=O)c4cnc(C5CCOC5)n4c3cc1C)CC2` (single isomer, unassigned) [Example 27(b)], the “ratio with increased urethra relaxation time during voiding (increase relative to the solvent administration group (vs vehicle))” value in series [1] is 181%. Inhibition on PDE9 was half-maximal at 26 nM (IC50).
The corresponding values for `Cc1cc2c(cc1C(=O)N1CCc3cc(Br)cnc31)[nH]c(=O)c1cnc(C3CCOC3)n12` (single isomer, unassigned) [Example 29(b)] are 149% and 5.6 nM.
Regarding `Cc1cc2c(cc1C(=O)N1CCc3cc(F)c(F)cc31)[nH]c(=O)c1cnc(C3CCOC3)n12.Cl` (single isomer, unassigned) [Example 30(b)], the “ratio with increased urethra relaxation time during voiding (increase relative to the solvent administration group (vs vehicle))” value in series [1] is 147%. For the same molecule, the 50% inhibitory concentration (IC50) against PDE9 came to 5.8 nM.
On to `COCc1cc2c(cc1C(=O)N1CCc3cc(Br)cnc31)[nH]c(=O)c1cnc(C3CCOC3)n12` (single isomer, unassigned) [Example 43(b)], for which the “ratio with increased urethra relaxation time during voiding (increase relative to the solvent administration group (vs vehicle))” value in series [1] amounted to 138%. The molecule further had an IC50 on PDE9 of 2.8 nM.
With `COCc1cc2c(cc1C(=O)N1Cc3c(F)ccc(F)c3C1)[nH]c(=O)c1cnc(C3CCOC3)n12.Cl` (single isomer, unassigned) [Example 45(b)], the “ratio with increased urethra relaxation time during voiding (increase relative to the solvent administration group (vs vehicle))” value in series [1] was determined as 141%. Also, the concentration for half-maximal inhibition (IC50) at PDE9 was determined as 8.9 nM.
The corresponding values for `COCc1cc2c(cc1C(=O)N1CCc3cc(OC)ncc31)[nH]c(=O)c1cnc(C3CCOC3)n12` (single isomer, unassigned; (+)) [Example 4(b), (+)-7-[(5-methoxy-2,3-dihydro-1H-pyrrolo[2,3-c]pyridin-1-yl)carbonyl]-8-(methoxymethyl)-1-(tetrahydrofuran-3-yl)imidazo[1,5-a]quinoxalin-4(5H)-one dihydrochloride] are 167% and 11 nM.
A word on the melting point: it is the temperature of the solid-liquid transition. As to `COc1cc2c(cn1)N(C(=O)c1cc3[nH]c(=O)c4cnc(C5CCOCC5)n4c3cc1Cl)CC2` [Example 21], the melting point was 314 to 316 °C (dec.). The IC50 against PDE9 amounted to 22 nM.
`Cc1cc2c(cc1C(=O)N1CCc3cc(F)ccc31)[nH]c(=O)c1cnc([C@@H]3CCC[C@@H]3O)n12` [Example 22] returned a melting point of 197 to 199 °C. Inhibition against PDE9 was half-maximal at 56 nM (IC50).
The corresponding values for `COc1cc2c(cc1C(=O)N1CCc3cc(Br)cnc31)[nH]c(=O)c1cnc(C3CCOCC3)n12` [Example 23] are 316 to 319 °C (dec.) and 4.9 nM.
The corresponding values for `Cc1cc2c(cc1C(=O)N1CCc3cc(Br)cnc31)[nH]c(=O)c1nnc(CC3CC3)n12` [Example 24] are 268 to 271 °C and 17 nM.
The matching figures for `COc1cc2c(cn1)N(C(=O)c1cc3[nH]c(=O)c4cnc(C5CCOC5)n4c3cc1C)CC2` (centres unmarked) [Example 27]: 241 to 243 °C and 84 nM.
In the case of `Cc1cc2c(cc1C(=O)N1CC(C)c3cc(Cl)ccc31)[nH]c(=O)c1cnc(C3CCOCC3)n12.Cl` (centres unmarked) [Example 31], the melting point is 221 to 224 °C. Besides, the “ratio with increased urethra relaxation time during voiding (increase relative to the solvent administration group (vs vehicle))” value in series [1] is 149%. The IC50 on PDE9 was found to be 1.4 nM.
Consider `Cc1cc2c(cc1C(=O)N1CC(C)c3cc(Cl)ccc31)[nH]c(=O)c1nnc(C3CCOCC3)n12.Cl` (centres unmarked) [Example 32], for which the melting point was 231 to 234 °C. The IC50 at PDE9 was 2.6 nM.
The matching figures for `COCc1cc2c(cc1C(=O)N1CCc3cc(Br)cnc31)[nH]c(=O)c1nnc(C3CCC3)n12` [Example 41]: 174 to 176 °C and 18 nM.
The matching figures for `COCc1cc2c(cc1C(=O)N1Cc3cccc(F)c3C1)[nH]c(=O)c1cnc(C3CCOC3)n12` (centres unmarked) [Example 42]: 154 to 156 °C and 13 nM.
As for `COCc1cc2c(cc1C(=O)N1CCc3cc(Br)cnc31)[nH]c(=O)c1nnc(CC3CC3)n12` [Example 44], the melting point is 168 to 170 °C. On PDE9, this molecule showed an IC50 of 6.1 nM.
The corresponding values for `COCc1cc2c(cc1C(=O)N1CCc3cc(Cl)ccc31)[nH]c(=O)c1nnc(C3CCC3)n12.Cl` [Example 46] are 170 to 172 °C and 13 nM.
Take `Cc1cc2c(cc1C(=O)N1CCc3cc(Br)cnc31)[nH]c(=O)c1cnc(C3CCCOC3)n12` (centres unmarked) [Example 47]: the melting point was 300 to 305 °C (dec.). On PDE9, this molecule displayed an IC50 of 2.1 nM.
The matching figures for `O=C(c1cc2[nH]c(=O)c3cnc(C4CCOCC4)n3c2cc1Cl)N1CCc2cc(Br)cnc21` [Example 48]: 270 to 275 °C (dec.) and 0.8 nM.
